Columns and labels:
N87 cells = test: Cellular proliferation in N87 cells (CellTiter Glo); assay type: cell-based, human; conditions: 72 h
Experimental: (§1) In addition to the engineered cell lines, the following cell lines were used: BT474 (human breast carcinoma), N87 (human gastric carcinoma), NCI-H1781 (human lung adenocarcinoma), and A431 (human epidermoid carcinoma); all cell lines were obtained from the American Type Culture Collection (ATCC, Manassas, VA). NCI-H1781 were grown in complete RPMI 1640 (Life Technologies, Carlsbad, CA) supplemented with 15% fetal bovine serum (FBS, Life Technologies, Carlsbad, CA) and 1% Penicillin-Streptomycin (P/S, Life Technologies, Carlsbad, CA). N87 cells were grown in complete RPMI 1640 supplemented with 10% FBS and 1% P/S. BT474 and A431 cells were grown in DMEM (Life Technologies, Carlsbad, CA) supplemented with 10% FBS and 1% P/S. All cells were maintained and propagated in a humidified 5% CO2 incubator at 37° C.
(§2) Cell proliferation in adherent cells was investigated in two HER2 amplified cell lines (BT474, N87), and a HER2VC expressing cell line (NCI-H1781). BT474, NCI-H1781, and N87 were plated in their appropriate growth media supplemented with either 10% FBS (BT474, N87) or 15% FBS (NCI-H1781) and 1% P/S in 96-well white clear-bottom tissue culture plates (Costar, Sigma-Aldrich). The starting cell densities were 3500, 5500, and 5000 cells for BT474, NCI-H1781, and N87 cells, respectively. An 8-point standard curve with varying cell densities (starting at 50000 cells and serially diluting down 2-fold) was prepared for each cell line and read 6 h after plating. Cells were allowed to attach overnight prior to compound treatment. Compound solutions were prepared by serially diluting test compounds in DMSO (Sigma-Aldrich), then diluting 500× in their corresponding serum free media. Cells were treated by adding a 1:1 volume of test compound to a final concentration of […], 0.004, 0.0014, or 0.0005 μM, in 0.1% DMSO and 5% FBS (for BT474 and N87) or 7.5% FBS (NCI-H1781). In BT474 and NCI-H1781, cell media was replaced and cells were redosed with fresh test compound solutions after 72 h. Viability was determined by CellTiter Glo (Promega, Madison, WI) after 72 h for N87 cells, and after 120 h for BT474 and […] cells. The results were converted to cell numbers using a standard curve; growth inhibition (GI50 values) were determined by Graph Pad Prism. […] The results are provided in Table 4, under columns titled “BT474-GI50”, “N87-GI50”, and “NCI-H1781-GI50”.

HER2 WT = target: T1, HER2 WT (Homo sapiens, UniProt P04626); test: Enzymatic assay HER2 WT (method a); assay type: biochemical; conditions: [HER2 WT]=12.5 nM, [ATP]=25 μM, [Peptide 22]=1 μM
T1 construct: purchased ProQinase, Freiburg, Germany ERBB2 0108-0000-1
T1 sequence (P04626 23-1255): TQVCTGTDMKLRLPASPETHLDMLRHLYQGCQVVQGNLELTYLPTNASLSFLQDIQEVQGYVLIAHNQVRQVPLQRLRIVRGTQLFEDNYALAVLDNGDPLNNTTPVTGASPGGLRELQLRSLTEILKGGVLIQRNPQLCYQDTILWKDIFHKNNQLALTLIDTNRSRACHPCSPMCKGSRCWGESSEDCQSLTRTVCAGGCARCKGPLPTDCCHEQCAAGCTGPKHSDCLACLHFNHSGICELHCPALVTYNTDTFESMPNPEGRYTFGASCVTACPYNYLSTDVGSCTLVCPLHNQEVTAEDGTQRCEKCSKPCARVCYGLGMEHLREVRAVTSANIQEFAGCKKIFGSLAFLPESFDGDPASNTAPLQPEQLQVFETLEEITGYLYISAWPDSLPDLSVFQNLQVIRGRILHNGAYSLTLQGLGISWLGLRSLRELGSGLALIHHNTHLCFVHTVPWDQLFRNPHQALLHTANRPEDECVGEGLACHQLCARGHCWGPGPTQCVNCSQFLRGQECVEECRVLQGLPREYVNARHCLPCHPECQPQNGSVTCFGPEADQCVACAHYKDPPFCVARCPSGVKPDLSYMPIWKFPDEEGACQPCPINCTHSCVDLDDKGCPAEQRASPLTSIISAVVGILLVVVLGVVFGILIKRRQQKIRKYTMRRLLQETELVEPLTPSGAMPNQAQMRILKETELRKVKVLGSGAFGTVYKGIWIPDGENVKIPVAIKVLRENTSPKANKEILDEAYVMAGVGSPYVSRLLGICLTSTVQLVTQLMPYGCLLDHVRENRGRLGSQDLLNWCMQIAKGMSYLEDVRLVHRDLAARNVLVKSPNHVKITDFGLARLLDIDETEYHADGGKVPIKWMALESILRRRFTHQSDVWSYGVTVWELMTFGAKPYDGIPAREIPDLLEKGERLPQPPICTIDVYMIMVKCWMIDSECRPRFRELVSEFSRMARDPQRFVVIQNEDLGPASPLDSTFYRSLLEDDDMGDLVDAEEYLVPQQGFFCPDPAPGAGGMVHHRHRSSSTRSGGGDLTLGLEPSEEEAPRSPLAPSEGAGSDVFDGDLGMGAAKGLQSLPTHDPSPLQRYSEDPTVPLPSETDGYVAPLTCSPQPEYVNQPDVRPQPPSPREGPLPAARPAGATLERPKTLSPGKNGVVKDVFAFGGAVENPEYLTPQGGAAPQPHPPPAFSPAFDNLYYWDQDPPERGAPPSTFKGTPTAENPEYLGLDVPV
How it was run: (§3)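 Microfluidic mobility-shift kinase assay with Peptide 22 (1 μM) in HEPES pH 7.5, MnCl2, MgCl2, Tween 20, TCEP. HER2 WT 12.5 nM and HER2 YVMA 5 nM each used 25 μM ATP; EGFR WT 2 nM used 1 mM ATP. IC50 came from initial-velocity (0–3600 s) percent inhibition, fitted to a variable-slope model.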

NCI-H1781 cells = test: Cellular proliferation in NCI-H1781 cells (CellTiter Glo); assay type: cell-based, human; conditions: NCI-H1781 cells, 120 h, redosed after 72 h
Experimental: as §1, §2

BT474 cells = test: Cellular proliferation in BT474 cells (CellTiter Glo); assay type: cell-based, human; conditions: 120 h, redosed after 72 h
Experimental: as §1, §2

EGFR WT = target: T2, EGFR WT (Homo sapiens, UniProt P00533); test: Enzymatic assay EGFR WT (method c); assay type: biochemical; conditions: [EGFR WT]=2 nM, [ATP]=1 mM, [Peptide 22]=1 μM
T2 construct: purchased Thermo Fisher, Carlsbad, CA ERBB1 PR7295B
T2 sequence (P00533 25-1210): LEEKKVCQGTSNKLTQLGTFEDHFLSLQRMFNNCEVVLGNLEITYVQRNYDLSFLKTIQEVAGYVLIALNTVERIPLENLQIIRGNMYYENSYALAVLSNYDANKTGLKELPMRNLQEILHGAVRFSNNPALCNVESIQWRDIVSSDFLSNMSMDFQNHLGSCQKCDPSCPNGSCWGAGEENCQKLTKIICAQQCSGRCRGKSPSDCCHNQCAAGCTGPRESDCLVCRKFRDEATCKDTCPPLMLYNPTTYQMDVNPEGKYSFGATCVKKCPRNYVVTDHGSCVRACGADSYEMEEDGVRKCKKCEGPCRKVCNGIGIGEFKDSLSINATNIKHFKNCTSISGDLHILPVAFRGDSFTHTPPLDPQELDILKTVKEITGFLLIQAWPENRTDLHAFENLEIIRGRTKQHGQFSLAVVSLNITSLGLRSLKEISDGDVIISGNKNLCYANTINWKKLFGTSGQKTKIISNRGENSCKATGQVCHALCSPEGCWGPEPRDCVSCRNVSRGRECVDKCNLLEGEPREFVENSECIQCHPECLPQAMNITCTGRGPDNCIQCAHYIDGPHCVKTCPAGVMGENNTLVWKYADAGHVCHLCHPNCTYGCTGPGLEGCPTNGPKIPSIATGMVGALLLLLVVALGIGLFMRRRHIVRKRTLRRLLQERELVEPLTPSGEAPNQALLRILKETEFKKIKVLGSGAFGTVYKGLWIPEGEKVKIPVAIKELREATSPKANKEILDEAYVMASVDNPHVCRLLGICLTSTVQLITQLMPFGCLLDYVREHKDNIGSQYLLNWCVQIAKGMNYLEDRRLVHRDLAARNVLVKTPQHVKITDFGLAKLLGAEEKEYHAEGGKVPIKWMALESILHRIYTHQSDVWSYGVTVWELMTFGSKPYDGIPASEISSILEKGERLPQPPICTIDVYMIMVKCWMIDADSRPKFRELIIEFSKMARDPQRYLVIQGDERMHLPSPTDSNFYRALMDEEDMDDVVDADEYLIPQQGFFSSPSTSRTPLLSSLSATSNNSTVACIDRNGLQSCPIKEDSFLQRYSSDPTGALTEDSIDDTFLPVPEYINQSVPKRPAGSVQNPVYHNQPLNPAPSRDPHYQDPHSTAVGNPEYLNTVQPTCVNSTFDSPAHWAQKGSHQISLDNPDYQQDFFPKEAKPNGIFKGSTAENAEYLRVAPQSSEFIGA
How it was run: as §3

IC50 (HER2 WT) [nM]	GI50 (NCI-H1781 cells) [nM]	GI50 (BT474 cells; Homo sapiens, BT-474, BT474 cells) [nM]	IC50 (EGFR WT) [nM]	GI50 (BT474 cells; BT474 cells) [nM]	Structure (SMILES)	GI50 (N87 cells; Homo sapiens) [nM]	GI50 (N87 cells) [nM]
< 100	< 100	< 100	> 10000	–	Cc1ccc(Oc2ccc(Nc3ncnc4sc5c(c34)CN(C(=O)C=CCN(C)C)C5C)cc2C)cn1 (single isomer, unassigned) [Compound 169]	< 100	–
< 100	< 100	–	> 10000	< 100	COc1ccc(Oc2ccc(Nc3ncnc4sc5c(c34)C(C)CN(C(=O)C=CCN(C)C)C5)cc2C)cn1 (single isomer, unassigned) [Compound 160]	–	< 100
